Tests used:
NIH-3T3 cells = experiment: Hoechst/propidium iodide cell death assay in NIH-3T3; format: cell-based; conditions: for cytotoxicity at 20 µM: Mus musculus, NIH3T3, 24 h, 24 h, read-out: Percentage of cell death % 24h NIH3t3
From the text: A high-content imaging system (PerkinElmer; Operetta CLS), was used to quantify cell death and apoptosis by calculating the number of propidium iodide-positive cells relative to Hoechst-positive cells, and the number of Annexin V-positive cells relative to Hoechst-positive cells, respectively.

His-14-3-3ζ = biological target: T1, His-14-3-3ζ (Homo sapiens, UniProt P63104); experiment: Surface plasmon resonance (SPR) on immobilized His-14-3-3ζ; format: binding; conditions: for kd: SPR dissociation rate; for BI ([Signal (RU)]): SPR fit parameter, per curve; for kon: pH 7.8, SPR association rate, read-out: ka
T1 construct: made in house; host or cells: Escherichia coli BL21 LOBSTR-RIL
T1 sequence (P63104 1-245): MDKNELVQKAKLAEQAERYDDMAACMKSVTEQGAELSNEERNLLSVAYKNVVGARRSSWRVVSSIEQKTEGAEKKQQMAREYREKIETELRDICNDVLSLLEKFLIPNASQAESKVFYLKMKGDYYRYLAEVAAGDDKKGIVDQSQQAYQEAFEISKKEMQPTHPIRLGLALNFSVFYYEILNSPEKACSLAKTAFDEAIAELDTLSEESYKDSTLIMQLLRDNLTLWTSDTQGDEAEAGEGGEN
Procedure: The published protocol of Higuchi & Ottmann as followed with modifications to express 14-3-3ζ [44]. Escherichia coli BL21 LOBSTR-RIL cells were transformed with a plasmid encoding His-14-3-3ζ. The transformed cells were grown in TB medium containing appropriate antibiotic at 37 °C with shaking at 200 rpm until the culture reached an optical density of 0.6–0.8 at 600 nm (OD600). Protein expression was induced by the addition of isopropyl β-D-1-thiogalactopyranoside to a final concentration of 0.4 mM. Subsequently, the temperature was decreased to 16 °C and the culture incubated for another 16 h. Cells were harvested by centrifugation at 7000 × g for 20 min at 21 °C. The supernatant was discarded, and the cell pellet containing 14-3-3ζ was mixed and resuspended in lysis buffer (50 mM Tris, pH 7.80), 500 mM NaCl, 5 mM imidazole, 5% glycerol, 1 mM PMSF & 1 mM Benzamidine. Cells were lysed by sonication on ice using a probe sonicator (20 cycles of 10 s on, 20 s off, amplitude 70%). The lysate was centrifuged at 30,000 × g for 30 min at 4 °C to remove cell debris. The supernatant was collected for further purification. The 14-3-3ζ was isolated from the lysate by affinity chromatography (Ni-NTA beads, Qiagen). For further purification, the eluant was subjected to size exclusion chromatography using a Superdex 75 gel filtration column (HiLoad 16/600, GE Healthcare), pre-equilibrated with SEC buffer (20 mM Tris, pH 7.5, 150 mM NaCl, 1 mM TCEP). The protein solution was concentrated by ultrafiltration, flash frozen, and stored at −80 °C.
The general protocol for evaluating 14-3-3ζ was adapted from Hartman et al. and modified for our instrument and sensors. The SPR experiments were performed using a Open surface plasmon resonance instrument (OpenSPR^TM, Nicoya, Kitchener-Waterloo, Canada), and high sensitivity-nitrilotriacetic acid (HS-NTA) sensors. The sensor chip surface was first activated with 40 mM of NiCl2 at a flow rate of 20 μL/min using 20 mM HEPES pH 7.8, 150 mM NaCl and 1% DMSO as the running buffer. All running buffers were filtered and degassed prior to use. 100 μg/mL His-14-3-3ζ protein in 20 mM HEPES pH 7.8, 150 mM NaCl and 1% DMSO was injected at 8 μL/min flow rate for 800 s contact time and immobilized until the instrument registered 2900–3500 RU (activation and protein immobalization spectrograms are provided as Supplementary Fig. 10). Drugs were dissolved in DMSO and were diluted with 20 mM HEPES pH 7.8, 150 mM NaCl (final DMSO concentration of 1% v/v) and were injected at a flow rate of 50 μL/min. Single-cycle kinetics were applied for KD evaluation and binding affinity using TraceDrawer v.1.8.1 (Ridgeview Instruments AB).

[1] = biological target: T2, 14-3-3ζ-Rluc8:112-136F-mC complex (Homo sapiens, UniProt P63104); experiment: Co-immunoprecipitation of 14-3-3ζ-Rluc8:112-136F-mC complex; format: cell-based; conditions: NIH-3T3 expressing BRET sensor, 20 μM, 3 h, vs DMSO
T2 construct: expressed in transfected cells; host or cells: NIH-3T3 fibroblasts, bi-directional pBI-CMV1 plasmid
T2 sequence (P63104 1-245): T1 sequence (P63104 1-245)
Procedure: NIH-3T3 cells were plated in 10 cm culture dishes at a density of 550,000 cells per dish. Transfection was conducted 48 h post-seeding. At 48 h post-transfection, DMSO or FTY-720 (20 μM) was added to the culture media and incubated with cells expressing the BRET-sensor for 3 h. Cell lysates were collected using RIPA buffer (0.9% NaCl, 1% v/v triton X-100, 0.5% sodium deoxycholate, 0.1% SDS, and 0.6% tris base), supplemented with protease inhibitor cocktail (Sigma-Aldrich; #P8340). The protein concentration was determined using the Bradford assay. Equal amounts of protein (100 μg) were subjected to immunoprecipitation using 1 μg anti-GFP antibody per sample (Invitrogen; #A-11120) and protein A/G magnetic beads (Thermo Fisher Scientific, Massachusetts, USA; #80104G), according to the manufacturer’s instructions. Antibodies against GFP were used to precipitate mCitrine due to the high degree of sequence homology. Immunoprecipitated proteins were eluted by boiling the beads in 1 X Laemmli protein sample buffer (Bio-Rad, California, USA; #1610747) for 5 min. Eluted samples were resolved in 10% SDS-PAGE gels and transferred to PVDF membranes (Bio-Rad, California, USA; #10026933) using the Trans-Blot Turbo transfer system (Bio-Rad). […] Protein bands were detected using Clarity Max western ECL substrate. […]

[2] = SPR fit, value repeated per curve
[3] = SPR, immobilized His-14-3-3ζ, single-cycle kinetics, 1% DMSO

Row | SMILES | cytotoxicity at 20 µM (NIH-3T3 cells) [%] | Percentage of cell death % 48h, NIH3T3 (NIH-3T3 cells) [%] | Bmax ([Signal (RU)]) (His-14-3-3ζ; SPR curve at 0.0009 mM ligand) [RU] | Bmax ([Signal (RU)]) (His-14-3-3ζ; SPR curve at 0.005 mM ligand) [RU] | Bmax ([Signal (RU)]) (His-14-3-3ζ; SPR curve at 0.02 mM ligand) [RU] | kd (His-14-3-3ζ; value repeated per curve) [s⁻¹] | BI ([Signal (RU)]) (His-14-3-3ζ) [RU] | Kd (His-14-3-3ζ; [2]) [nM] | Kd (His-14-3-3ζ; [3]) [nM] | kon (His-14-3-3ζ; value repeated per curve) [M⁻¹ s⁻¹] | Abundance of 14-3-3ζ-Rluc8 within the co-immunoprecipitated complex [1] | Bmax ([Signal (RU)]) (His-14-3-3ζ; SPR curve at 0.003 mM ligand) [RU] | Bmax ([Signal (RU)]) (His-14-3-3ζ; SPR curve at 0.01 mM ligand) [RU] | Kd (His-14-3-3ζ; SPR, immobilized 14-3-3ζ) [nM] | Bmax ([Signal (RU)]) (His-14-3-3ζ; SPR curve at 0.007 mM ligand) [RU]
1 | CCCCCCCCc1ccc(CCC(N)(CO)CO)cc1 [Fingolimod (FTY720), Fingolimod] | 89.8 | 86.4299 | 2.87 | 227.4 | 342.32 | 0.00856 | 0.1 | 10600 | 10600 | 807 | reduced |  |  |  | 
2 | O=C(NC1CCN(CCCCC2(C(=O)NCC(F)(F)F)c3ccccc3-c3ccccc32)CC1)c1ccccc1-c1ccc(C(F)(F)F)cc1 [Lomitapide] | 90.2 | 77.6841 | 55.11 |  | 311.25 | 0.0109 | 0.1 | 858 | 890 | 12700 |  | 159.43 | 270.8 | 900 | 
3 | OC1(c2ccc(Cl)c(C(F)(F)F)c2)CCN(CCCC(c2ccc(F)cc2)c2ccc(F)cc2)CC1 [Penfluridol] | 85.7 | 79.942 | 99.25 | 72.64 |  | 0.00974 | 0.1 | 1350 | 1350 | 7240 |  |  | 100.4 |  | 80.65
4 | CC(C)(C)c1ccc(C(O)CCCN2CCC(C(O)(c3ccccc3)c3ccccc3)CC2)cc1 (stereo not drawn) [Terfenadine] | 85.2 | 73.0215 | 166.72 | 144.99 |  | 0.0185 | 0.1 | 2960 | 2960 | 6260 |  |  | 179.00 |  | 177.73

From publication PMC12603070, “A high-throughput screening approach to discover potential colorectal cancer chemotherapeutics: repurposing drugs to identify novel disruptors of 14-3-3 proteins” (Cell Death & Disease, 2025)
